Measured values from patent US20230085307A1, “PYRIDAZINONE COMPOUND AND HERBICIDE” (NISSAN CHEMICAL CORPORATION, priority 2019, published 2023).

Assays:
lambsquarters [1] = experiment: Test Example 5: herbicidal effect by foliage application, plastic box (Table 20, symbol O); type: in vivo, lambsquarters (Chenopodium album); conditions: foliage application, AAH 320 g/ha, three weeks after application
How it was run: (§1)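 Sow seeds spot-wise in sterilized diluvial soil; cover with ~1.5 cm soil. Grow 14 days in greenhouse, 25° C. to 30° C. Spray foliage with emulsion diluted to predetermined amount. Rate effect after 3 weeks.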

persian speedwell [2] = experiment: Test Example 4: herbicidal effect by soil treatment (Table 19, symbol R); type: in vivo, Persian speedwell (Veronica persica); conditions: AAH 320 g/ha
How it was run: (§2)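 Applied as a water-diluted emulsion, the compound was sprayed onto soil covering newly sown seeds. Evaluation came three weeks after application, in a greenhouse held at 25° C. to 30° C.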

barnyard grass [3] = experiment: Test Example 5: herbicidal effect by foliage application, plastic box (Table 20, symbol H); type: in vivo, barnyard grass (Echinochloa crus-galli); conditions: foliage application, AAH 320 g/ha, three weeks after application
How it was run: as §1

green foxtail [4] = experiment: Test Example 5: herbicidal effect by foliage application, plastic box (Table 20, symbol G); type: in vivo, green foxtail (Setaria viridis); conditions: foliage application, AAH 320 g/ha, three weeks after application
How it was run: as §1

blackgrass [5] = experiment: Test Example 4: herbicidal effect by soil treatment (Table 19, symbol J); type: in vivo, blackgrass (Alopecurus myosuroides); conditions: AAH 320 g/ha
How it was run: as §2

barnyard grass [6] = experiment: Test Example 3: herbicidal effect by foliage application, Wagner pot (Table 18, symbol H); type: in vivo, barnyard grass (Echinochloa crus-galli); conditions: 320 g/ha
How it was run: (§3)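 Plants were sown in alluvial soil held under 0.1–0.5 cm standing water and grown 14 days in a greenhouse at 25–30 °C. An emulsifiable formulation, water-diluted to the set dose, was then sprayed onto the foliage, and effects were scored three weeks later using previously defined criteria.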

Italian ryegrass [7] = experiment: Test Example 4: herbicidal effect by soil treatment (Table 19, symbol K); type: in vivo, Italian ryegrass (Lolium multiflorum); conditions: AAH 320 g/ha
How it was run: as §2

barnyard grass [8] = experiment: Test Example 4: herbicidal effect by soil treatment (Table 19, symbol H); type: in vivo, barnyard grass (Echinochloa crus-galli); conditions: AAH 320 g/ha
How it was run: as §2

green foxtail [9] = experiment: Test Example 4: herbicidal effect by soil treatment (Table 19, symbol G); type: in vivo, green foxtail (Setaria viridis); conditions: AAH 320 g/ha
How it was run: as §2

wild oat [10] = experiment: Test Example 5: herbicidal effect by foliage application, plastic box (Table 20, symbol I); type: in vivo, wild oat (Avena fatua); conditions: foliage application, AAH 320 g/ha, three weeks after application
How it was run: as §1

Chinese sprangletop = experiment: Test Example 3: herbicidal effect by foliage application, Wagner pot (Table 18, symbol D); type: in vivo, chinese sprangletop (Leptochloa chinensis); conditions: 320 g/ha
How it was run: as §3

Italian ryegrass [11] = experiment: Test Example 5: herbicidal effect by foliage application, plastic box (Table 20, symbol K); type: in vivo, Italian ryegrass (Lolium multiflorum); conditions: foliage application, AAH 320 g/ha, three weeks after application
How it was run: as §1

chickweed [12] = experiment: Test Example 5: herbicidal effect by foliage application, plastic box (Table 20, symbol P); type: in vivo, common chickweed (Stellaria media); conditions: foliage application, AAH 320 g/ha, three weeks after application
How it was run: as §1

windgrass [13] = experiment: Test Example 4: herbicidal effect by soil treatment (Table 19, symbol L); type: in vivo, windgrass (Apera spica-venti); conditions: AAH 320 g/ha
How it was run: as §2

southern crabgrass [14] = experiment: Test Example 4: herbicidal effect by soil treatment (Table 19, symbol F); type: in vivo, southern crabgrass (Digitaria ciliaris); conditions: AAH 320 g/ha
How it was run: as §2

wild oat [15] = experiment: Test Example 4: herbicidal effect by soil treatment (Table 19, symbol I); type: in vivo, wild oat (Avena fatua); conditions: AAH 320 g/ha
How it was run: as §2

blackgrass [16] = experiment: Test Example 5: herbicidal effect by foliage application, plastic box (Table 20, symbol J); type: in vivo, blackgrass (Alopecurus myosuroides); conditions: foliage application, AAH 320 g/ha, three weeks after application
How it was run: as §1

redroot pigweed [17] = experiment: Test Example 5: herbicidal effect by foliage application, plastic box (Table 20, symbol N); type: in vivo, redroot pigweed (Amaranthus retroflexus); conditions: foliage application, AAH 320 g/ha, three weeks after application
How it was run: as §1

windgrass [18] = experiment: Test Example 5: herbicidal effect by foliage application, plastic box (Table 20, symbol L); type: in vivo, windgrass (Apera spica-venti); conditions: foliage application, AAH 320 g/ha, three weeks after application
How it was run: as §1

chickweed [19] = experiment: Test Example 4: herbicidal effect by soil treatment (Table 19, symbol P); type: in vivo, common chickweed (Stellaria media); conditions: AAH 320 g/ha
How it was run: as §2

rice flat sedge = experiment: Test Example 3: herbicidal effect by foliage application, Wagner pot (Table 18, symbol E); type: in vivo, rice flat sedge (Cyperus iria); conditions: 320 g/ha
How it was run: as §3

persian speedwell [20] = experiment: Test Example 5: herbicidal effect by foliage application, plastic box (Table 20, symbol R); type: in vivo, Persian speedwell (Veronica persica); conditions: foliage application, AAH 320 g/ha, three weeks after application
How it was run: as §1

redroot pigweed [21] = experiment: Test Example 4: herbicidal effect by soil treatment (Table 19, symbol N); type: in vivo, redroot pigweed (Amaranthus retroflexus); conditions: AAH 320 g/ha
How it was run: as §2

lambsquarters [22] = experiment: Test Example 4: herbicidal effect by soil treatment (Table 19, symbol O); type: in vivo, lambsquarters (Chenopodium album); conditions: AAH 320 g/ha
How it was run: as §2

southern crabgrass [23] = experiment: Test Example 5: herbicidal effect by foliage application, plastic box (Table 20, symbol F); type: in vivo, southern crabgrass (Digitaria ciliaris); conditions: foliage application, AAH 320 g/ha, three weeks after application
How it was run: as §1

velvetleaf [24] = experiment: Test Example 5: herbicidal effect by foliage application, plastic box (Table 20, symbol M); type: in vivo, velvetleaf (Abutilon theophrasti); conditions: foliage application, AAH 320 g/ha, three weeks after application
How it was run: as §1

velvetleaf [25] = experiment: Test Example 4: herbicidal effect by soil treatment (Table 19, symbol M); type: in vivo, velvetleaf (Abutilon theophrasti); conditions: AAH 320 g/ha
How it was run: as §2

COc1ccc(-c2sc3ccccc3c2-c2c(O)c(OC)nn(C)c2=O)c(OC)c1 [1-180]
O: lambsquarters, herbicidal effect (lambsquarters [1]): 2 (Herbicidal rate of 20% or more and less than 40%)
R: persian speedwell, herbicidal effect rating (persian speedwell [2]): 4 (Herbicidal rate of 70% or more and less than 90%)
H: barnyard grass, herbicidal effect (barnyard grass [3]): 1 (Herbicidal rate of 5% or more and less than 20%)
G: green foxtail, herbicidal effect (green foxtail [4]): 5 (Herbicidal rate of 90% or more (almost completely withered))
J: blackgrass, herbicidal effect rating (blackgrass [5]): 0 (Herbicidal rate of 5% or less (almost no effect))
herbicidal effect on H (barnyard grass), rating 0-5 (barnyard grass [6]): 1 (Herbicidal rate of 5% or more and less than 20%)
K: Italian ryegrass, herbicidal effect rating (Italian ryegrass [7]): 0 (Herbicidal rate of 5% or less (almost no effect))
H: barnyard grass, herbicidal effect rating (barnyard grass [8]): 0 (Herbicidal rate of 5% or less (almost no effect))
G: green foxtail, herbicidal effect rating (green foxtail [9]): 0 (Herbicidal rate of 5% or less (almost no effect))
I: wild oat, herbicidal effect (wild oat [10]): 3 (Herbicidal rate of 40% or more and less than 70%)
herbicidal effect on D (Chinese sprangletop), rating 0-5 (Chinese sprangletop): 0 (Herbicidal rate of 5% or less (almost no effect))
K: Italian ryegrass, herbicidal effect (Italian ryegrass [11]): 3 (Herbicidal rate of 40% or more and less than 70%)
P: chickweed, herbicidal effect (chickweed [12]): 5 (Herbicidal rate of 90% or more (almost completely withered))
L: windgrass, herbicidal effect rating (windgrass [13]): 0 (Herbicidal rate of 5% or less (almost no effect))
F: southern crabgrass, herbicidal effect rating (southern crabgrass [14]): 0 (Herbicidal rate of 5% or less (almost no effect))
I: wild oat, herbicidal effect rating (wild oat [15]): 2 (Herbicidal rate of 20% or more and less than 40%)
J: blackgrass, herbicidal effect (blackgrass [16]): 3 (Herbicidal rate of 40% or more and less than 70%)
N: redroot pigweed, herbicidal effect (redroot pigweed [17]): 3 (Herbicidal rate of 40% or more and less than 70%)
L: windgrass, herbicidal effect (windgrass [18]): 3 (Herbicidal rate of 40% or more and less than 70%)
P: chickweed, herbicidal effect rating (chickweed [19]): 4 (Herbicidal rate of 70% or more and less than 90%)
herbicidal effect on E (rice flat sedge), rating 0-5 (rice flat sedge): 4 (Herbicidal rate of 70% or more and less than 90%)
R: persian speedwell, herbicidal effect (persian speedwell [20]): 4 (Herbicidal rate of 70% or more and less than 90%)
N: redroot pigweed, herbicidal effect rating (redroot pigweed [21]): 0 (Herbicidal rate of 5% or less (almost no effect))
O: lambsquarters, herbicidal effect rating (lambsquarters [22]): 0 (Herbicidal rate of 5% or less (almost no effect))
F: southern crabgrass, herbicidal effect (southern crabgrass [23]): 3 (Herbicidal rate of 40% or more and less than 70%)
M: velvetleaf, herbicidal effect (velvetleaf [24]): 0 (Herbicidal rate of 5% or less (almost no effect))
M: velvetleaf, herbicidal effect rating (velvetleaf [25]): 0 (Herbicidal rate of 5% or less (almost no effect))
